Source: ChEMBL document CHEMBL2046359, “Novel tricyclic indeno[2,1-d]pyrimidines with dual antiangiogenic and cytotoxic activities as potent antitumor agents” (Bioorg Med Chem, 2012)
Calls of active or inactive are those of the source. The calls are words filed in the database; no cut-off is given here.

Tests used:
786-0 = experiment: cells; conditions: Homo sapiens
cells = conditions: Homo sapiens, NCI/ADR-RES
NCI-H226 = experiment: cells; conditions: Homo sapiens
SF-295 = experiment: cells; conditions: Homo sapiens
A549 = experiment: cells; conditions: Homo sapiens
NCI-H23 = experiment: cells; conditions: Homo sapiens
[1] = biological target: T1, Dihydroorotate dehydrogenase (Plasmodium falciparum, UniProt Q54A96); experiment: Inhibition of Plasmodium falciparum DHODH
T1 sequence (Q54A96 whole entry): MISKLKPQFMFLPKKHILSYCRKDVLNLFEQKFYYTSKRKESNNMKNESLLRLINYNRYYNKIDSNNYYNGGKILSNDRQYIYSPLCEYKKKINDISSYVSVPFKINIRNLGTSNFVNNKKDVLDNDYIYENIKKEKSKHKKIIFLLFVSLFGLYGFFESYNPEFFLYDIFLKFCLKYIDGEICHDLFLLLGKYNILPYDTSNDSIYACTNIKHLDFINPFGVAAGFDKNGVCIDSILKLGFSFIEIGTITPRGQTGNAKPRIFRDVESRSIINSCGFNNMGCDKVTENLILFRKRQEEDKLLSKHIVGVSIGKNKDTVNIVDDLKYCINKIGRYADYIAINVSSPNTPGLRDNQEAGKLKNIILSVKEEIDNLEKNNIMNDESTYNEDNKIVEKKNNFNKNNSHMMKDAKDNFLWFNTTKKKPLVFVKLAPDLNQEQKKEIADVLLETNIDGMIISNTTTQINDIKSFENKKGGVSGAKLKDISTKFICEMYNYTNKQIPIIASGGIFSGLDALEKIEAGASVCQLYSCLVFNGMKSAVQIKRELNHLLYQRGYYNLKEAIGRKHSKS

PC-3 = experiment: cells; conditions: Homo sapiens
RPMI-8226 = experiment: cells; conditions: Homo sapiens
B16-F10 [2] = experiment: Antitumor activity against mouse B16F10 cells allografted in NCr nu/nu mouse assessed as tumor growth reduction at 35 mg/kg, ip administered three times weekly for 2 weeks
HOP-62 = experiment: cells; conditions: Homo sapiens
HCT-116 = experiment: cells; conditions: Homo sapiens
SF-268 = experiment: cells; conditions: Homo sapiens
SK-MEL-5 = experiment: cells; conditions: Homo sapiens
SR = experiment: cells; conditions: Homo sapiens
MCF7 = experiment: cells; conditions: Homo sapiens
MOLT-4 = experiment: cells; conditions: Homo sapiens
M14 = experiment: cells; conditions: Homo sapiens
BT-549 = experiment: cells; conditions: Homo sapiens
KM12 = experiment: cells; conditions: Homo sapiens
UACC-62 = experiment: cells; conditions: Homo sapiens
Mus musculus = experiment: Toxicity in NCr nu/nu mouse allografted with mouse B16F10 cells at 35 mg/kg, ip administered three times a week for 4 weeks; format: organism-based, B16-F10; parameters: dose 35 mg/kg, route intraperitoneal; conditions: in vivo, 672 h
COLO 205 = experiment: cells; conditions: Homo sapiens
SF-539 = experiment: cells; conditions: Homo sapiens
T47D = experiment: cells; conditions: Homo sapiens
IGROV-1 = experiment: cells; conditions: Homo sapiens
SK-OV-3 = experiment: cells; conditions: Homo sapiens
MDA-MB-435 = experiment: cells; conditions: Homo sapiens
B16-F10 [3] = experiment: Antitumor activity against mouse B16F10 cells allografted in NCr nu/nu mouse assessed as inhibition of tumor angiogenesis at 35 mg/kg, ip administered three times weekly for 2 weeks
OVCAR-3 = experiment: cells; conditions: Homo sapiens
A-431 = experiment: Antiproliferative activity against human A431 cells after 48 hrs by CYQUANT assay; format: functional, cell-based; conditions: A-431, 48 h
B16-F10 [4] = experiment: Antitumor activity against mouse B16F10 cells allografted in NCr nu/nu mouse assessed as decrease in tumor metastasis at 35 mg/kg, ip administered three times weekly for 2 weeks
TK-10 = experiment: cells; conditions: Homo sapiens
Thymidylate synthase = Thymidylate synthase (Homo sapiens, UniProt P04818); experiment: Inhibition of human thymidylate synthase
SK-MEL-2 = experiment: cells; conditions: Homo sapiens
OVCAR-4 = experiment: cells; conditions: Homo sapiens
[5] = biological target: T2, Bifunctional dihydrofolate reductase-thymidylate synthase (Toxoplasma gondii, UniProt Q07422); experiment: Inhibition of Toxoplasma gondii thymidylate synthase
T2 sequence (Q07422 whole entry): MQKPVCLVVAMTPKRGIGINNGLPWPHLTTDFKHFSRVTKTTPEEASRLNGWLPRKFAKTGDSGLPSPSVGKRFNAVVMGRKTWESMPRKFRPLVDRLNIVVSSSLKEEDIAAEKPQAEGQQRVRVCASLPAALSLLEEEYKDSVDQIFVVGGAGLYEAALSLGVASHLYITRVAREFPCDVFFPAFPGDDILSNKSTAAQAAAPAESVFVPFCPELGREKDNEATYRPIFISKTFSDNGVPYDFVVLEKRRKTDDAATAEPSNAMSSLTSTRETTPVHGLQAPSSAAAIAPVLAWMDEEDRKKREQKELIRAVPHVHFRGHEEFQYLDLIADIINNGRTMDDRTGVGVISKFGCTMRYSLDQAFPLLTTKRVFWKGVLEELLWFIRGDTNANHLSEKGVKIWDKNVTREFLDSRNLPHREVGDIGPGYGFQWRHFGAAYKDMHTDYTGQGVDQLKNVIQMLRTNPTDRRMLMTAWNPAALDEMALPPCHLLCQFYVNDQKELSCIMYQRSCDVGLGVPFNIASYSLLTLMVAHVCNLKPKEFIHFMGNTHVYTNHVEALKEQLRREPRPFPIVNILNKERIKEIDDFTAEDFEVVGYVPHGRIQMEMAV

SN12C = experiment: cells; conditions: Homo sapiens
K562 = experiment: cells; conditions: Homo sapiens
NCI-H522 = experiment: cells; conditions: Homo sapiens

Sequence of Thymidylate synthase (P04818 whole entry): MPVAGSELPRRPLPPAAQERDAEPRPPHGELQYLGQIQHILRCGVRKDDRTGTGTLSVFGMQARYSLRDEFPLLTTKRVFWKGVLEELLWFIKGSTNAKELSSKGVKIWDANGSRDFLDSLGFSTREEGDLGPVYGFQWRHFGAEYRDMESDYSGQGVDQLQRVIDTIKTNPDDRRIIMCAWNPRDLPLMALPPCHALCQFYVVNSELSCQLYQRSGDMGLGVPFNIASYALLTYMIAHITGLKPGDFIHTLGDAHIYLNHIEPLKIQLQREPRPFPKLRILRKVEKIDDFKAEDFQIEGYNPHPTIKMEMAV

`Nc1nc2c(c(Nc3ccc(Cl)cc3)n1)-c1ccccc1C2` showed a GI50 (786-0) of 514 nM, a GI50 (cells) of 787 nM and a GI50 (NCI-H226) of 2140 nM. The GI50 (SF-295) was 547 nM, the GI50 (A549) was 43.4 nM and the GI50 (NCI-H23) was 565 nM. For the same compound, the IC50 [1] was over 200000 nM, the GI50 (PC-3) was 715 nM and the GI50 (RPMI-8226) was 489 nM. The “growth inhibition (GI)” value (B16-F10 [2]) was “Active”, the GI50 (HOP-62) was 654 nM and the GI50 (HCT-116) was 38.1 nM. It also gave a GI50 (SF-268) of 86.2 nM, a GI50 (SK-MEL-5) of 513 nM and a GI50 (SR) of 484 nM. It also gave a GI50 (MCF7) of 73.4 nM, a GI50 (MOLT-4) of 66.1 nM and a GI50 (M14) of 431 nM. The GI50 (BT-549) was 2830 nM, the GI50 (KM12) was 330 nM and the GI50 (UACC-62) was 641 nM. For the same compound, the Activity (Mus musculus) was “Non-toxic”, the GI50 (COLO 205) was 638 nM and the GI50 (SF-539) was 381 nM. For the same compound, the GI50 (T47D) was 2900 nM, the GI50 (IGROV-1) was 287 nM and the GI50 (SK-OV-3) was 2090 nM. The GI50 (MDA-MB-435) was 554 nM, the Activity (B16-F10 [3]) was “Active” and the GI50 (OVCAR-3) was 216 nM. The IC50 (A-431) was 9700 nM, the Activity (B16-F10 [4]) was “inactive” and the GI50 (TK-10) was 2150 nM. For the same compound, the IC50 (Thymidylate synthase) was over 14000 nM, the GI50 (SK-MEL-2) was 558 nM and the GI50 (OVCAR-4) was 2090 nM. It also gave an IC50 [5] of over 14000 nM, a GI50 (SN12C) of 189 nM and a GI50 (K562) of 366 nM. The GI50 (NCI-H522) was 622 nM.
